The test system of this assay is corneal disorder models. As to the kind of experiment: Test for therapeutic effect on corneal damage (exorbital lacrimal gland removal, fluorescein staining score). In kind it is in vivo, male SD rats. The following applies: for Improvement ratio (%): instilled 6 times a day for 14 days; for Mean value of scores: instilled into both eyes 6 times a day for 14 days, fluorescein staining total score. As to the method: Using male SD rats, corneal disorder models were produced in accordance with the method of Fujihara et al. (Invest. Opthalmol. Vis. Sci. 42 (1): 96-100 (2001)) After the production of the corneal disorder models, the corneal damage score was evaluated in accordance with the method of Murakami et al. (Journal of the eye 21 (1): 87-90 (2004)), and the improvement ratio of a corneal damage after instillation was obtained.
Male SD rats were systemically anesthetized by an administration of Nembutal. Subsequently the exorbital lacrimal gland of each rat was removed and a corneal damage was induced over a period of 2 months.
Then, 4′-[[4-methyl-6-(1-methylbenzimidazol-2-yl)-2-n-propylbenzimidazol-1-yl]methyl]-1,1′-biphenyl-2-carboxylic acid (hereinafter referred to as “Compound A”), 2-n-butyl-4-spirocyclopentane-1-[[2′-(1H-tetrazol-5-yl)-1,1′-biphenyl-4-yl]methyl]-2-imidazolin-5-one (hereinafter referred to as “Compound B”), 2-butyl-4-chloro-5-hydroxymethyl-1-[[2′-(1H-tetrazol-5-yl)-1,1′-biphenyl-4-yl]methyl]imidazole monopotassium salt (hereinafter referred to as “Compound C”), 2-ethoxy-1-[[2′-(1H-tetrazol-5-yl)-1,1′-biphenyl-4-yl]methyl]-1H-benzimidazol-7-carboxylic acid (hereinafter referred to as “Compound D”) […] N-[[2′-(1H-tetrazol-5-yl)-1,1′-biphenyl-4-yl]methyl]-N-valeryl-L-valine (hereinafter referred to as “Compound E”), or 4-(1-hydroxy-1-methylethyl)-2-n-propyl-1-[[2′-(1H-tetrazol-5-yl)-1,1′-biphenyl-4-yl]methyl]imidazol-5-carboxylic acid monohydrate (hereinafter referred to as “Compound F”) was administered to the rats as follows.
A physiological saline solution containing Compound A (0.005%) was instilled into both eyes 6 times a day for 14 days (one group consisting of 4 animals, 8 eyes).
A physiological saline solution containing Compound B (0.04%) was instilled into both eyes 6 times a day for 14 days (one group consisting of 4 animals, 8 eyes).
A physiological saline solution containing Compound C (0.5%) was instilled into both eyes 6 times a day for 14 days (one group consisting of 3 animals, 6 eyes).
A phosphate-buffered saline solution containing Compound D (0.004%) was instilled into both eyes 6 times a day for 14 days (one group consisting of 4 animals, 8 eyes).
A phosphate-buffered saline solution containing Compound E (0.004%) was instilled into both eyes 6 times a day for 14 days (one group consisting of 4 animals, 8 eyes).
A phosphate-buffered saline solution containing Compound F (0.004%) was instilled into both eyes 6 times a day for 14 days (one group consisting of 4 animals, 8 eyes).
In a control group, physiological saline or phosphate-buffered saline was instilled into both eyes 6 times a day for 14 days (one group consisting of 4 animals, 8 eyes).
Fourteen days after the start of instillation, the damaged parts of the cornea were stained with fluorescein. For each of the upper, middle and lower parts of the cornea, the degree of fluorescein staining was evaluated by scoring according to the criteria shown below and the improvement ratio of corneal damage was calculated from the mean value of the total scores for each of the above-mentioned parts. Also for normal eyes, the mean value of the total scores for each of the above-mentioned parts was obtained.
0: No punctate staining 1: Scattered staining (punctate staining being separated) 2: Moderate staining (a part of punctate staining being adjacent) 3: Heavy staining (punctate staining being barely separated)
Incidentally, the mean value of the scores is a mean of those of 8 cases or 6 cases, respectively.
Improvement ratio (%)={(control)−(the present compound)}/damage degree×100 Damage degree=(control)−(normal eye)

Where [1] appears, read: 0.004% in phosphate-buffered saline, vs phosphate-buffered saline control, Table 2.
Setting [2] is: 0.004% in phosphate-buffered saline, Table 2 (normal eye 2.5, control 4.6).

Turning to `CCCCC1=NC2(CCCC2)C(=O)N1Cc1ccc(-c2ccccc2-c2nnn[nH]2)cc1` [Compound B, 2-n-butyl-4-spirocyclopentane-1-[[2′-(1H-tetrazol-5-yl)-1,1′-biphenyl-4-yl]methyl]-2-imidazolin-5-one], where the note is “0.04% in physiological saline, vs physiological saline control, Table 1”, the “Improvement ratio (%)” value is 62.5%. Further, under “0.04% in physiological saline, Table 1 (normal eye 3.3, control 4.9)”, the “Mean value of scores” value is on record as 3.9.

For `CCCCC(=O)N(Cc1ccc(-c2ccccc2-c2nnn[nH]2)cc1)[C@H](C(=O)O)C(C)C` [Compound E, N-[[2′-(1H-tetrazol-5-yl)-1,1′-biphenyl-4-yl]methyl]-N-valeryl-L-valine], under setting [1], the “Improvement ratio (%)” value came to 33.3%. Under setting [2], the “Mean value of scores” value stood at 3.9.

For the molecule `CCCCc1nc(Cl)c(CO)n1Cc1ccc(-c2ccccc2-c2nnn[nH]2)cc1.[K]` [Compound C, 2-butyl-4-chloro-5-hydroxymethyl-1-[[2′-(1H-tetrazol-5-yl)-1,1′-biphenyl-4-yl]methyl]imidazole monopotassium salt], for the setting “0.5% in physiological saline, vs physiological saline control, Table 1”, the “Improvement ratio (%)” value is listed as 87.5%. Moreover, the “Mean value of scores” value (0.5% in physiological saline, Table 1 (normal eye 3.3, control 4.9)) is recorded as 3.5.

Turning to `CCOc1nc2cccc(C(=O)O)c2n1Cc1ccc(-c2ccccc2-c2nnn[nH]2)cc1` [Compound D, 2-ethoxy-1-[[2′-(1H-tetrazol-5-yl)-1,1′-biphenyl-4-yl]methyl]-1H-benzimidazol-7-carboxylic acid], under setting [1], the “Improvement ratio (%)” value was determined as 47.6%. The “Mean value of scores” value under setting [2] is on record as 3.6.

With `CCCc1nc2c(C)cc(-c3nc4ccccc4n3C)cc2n1Cc1ccc(-c2ccccc2C(=O)O)cc1` [Compound A, 4′-[[4-methyl-6-(1-methylbenzimidazol-2-yl)-2-n-propylbenzimidazol-1-yl]methyl]-1,1′-biphenyl-2-carboxylic acid], the “Improvement ratio (%)” value (0.005% in physiological saline, vs physiological saline control, Table 1) was found to be 62.5%. Besides, the “Mean value of scores” value (0.005% in physiological saline, Table 1 (normal eye 3.3, control 4.9)) is reported as 3.9.

Regarding `CCCc1nc(C(C)(C)O)c(C(=O)O)n1Cc1ccc(-c2ccccc2-c2nnn[nH]2)cc1.O` [Compound F, 4-(1-hydroxy-1-methylethyl)-2-n-propyl-1-[[2′-(1H-tetrazol-5-yl)-1,1′-biphenyl-4-yl]methyl]imidazol-5-carboxylic acid monohydrate], the “Improvement ratio (%)” value (0.004% in phosphate-buffered saline, vs phosphate-buffered saline control, Table 3) was found to be 65.9%. Under “0.004% in phosphate-buffered saline, Table 3 (normal eye 2.2, control 6.3)”, the “Mean value of scores” value stood at 3.6.

The values are drawn from US20090042962A1, “Therapeutic Agent for Keratoconjunctival Disorder” (SANTEN PHARMACEUTICAL CO., LTD., priority 2005, published 2009).
